pIC50: −log10 of the molar value. Several values for one entry are separate records, joined by “and”; a condition that tells them apart may be missing. Equal values may be shown once.
Tested on: NCI-H23 complex spheroids with HUVEC/MSC, viability
Experiment: Anticancer human tumor NCI-H23 cell line growth inhibition [RAS];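 for viability, T/C: 100% = DMSO vehicle control viability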
Settings: for viability, T/C: stronger effect = lower value
Text: RAS pathway inhibitors in Combinations in Complex Spheroids
A high-throughput screen of multi-cell type tumor spheroids was designed to identify active combinations of RAS pathway inhibitors and targeted small molecules. Complex spheroids include a stromal component modeled by human endothelial cells (HUVEC) and fibroblasts modeled by human mesenchymal stem cells (MSCs). The concentration ranges selected for each drug and investigational agent were based upon clinically achievable concentrations if the clinical Cmax of the agent was known.
Compounds. The drugs and investigational agents: abemaciclib (NSC768073), cobimetinib (NSC768068), divarasib (GDC6063, NSC841802), docetaxel (NSC628503), GDC-1971 (RLY-1971, NSC841576), gemcitabine (NSC613327), inavolisib (NSC800729), ipatasertib (NSC767898), KB-0742 (NSC834161), MRTX-1133 (NSC836407), osimertinib (NSC779217), RMC-4630 (NSC839698), RMC-6236 (NSC851965), RMC-6291 (NSC852671), Ro-3306 (NSC812927), sapanisertib (NSC764658), SN-38 (NSC673596), staurosporine (NSC755774), SY5609 (NSC837396), and tovorafenib (DAY101, NSC766906), were obtained from the National Cancer Institute (NCI) Developmental Therapeutics Program Chemical Repository. The FDA-approved anticancer drug set is available from the NCI Developmental Therapeutics Program. […] The stock solutions were prepared in dimethyl sulfoxide (DMSO, Sigma-Aldrich, St. Louis, MO, cat. D2650) at 800-fold the tested concentration and stored at -70 degrees C prior to their use. All drugs and investigational agents were tested over a range starting from a high concentration at or near the clinical Cmax and decreasing in half-log increments. If the clinical Cmax for an agent had not been determined, the highest concentration tested was 10 microM.
Cell Culture. All cells were maintained in an incubator at 37 degrees C and 5% CO2 with 95% humidity. The PDC lines were cultured according to standard operating procedures established by the NCI PDMR. All PDCs were thawed and cultured in Matrigel-coated flasks prepared with a working solution of 1X Ham's F-12 nutrient mix, without supplementation (Invitrogen, Waltham, MA, cat. 11765054), 100 U/mL penicillin-streptomycin (Invitrogen, cat. 15140122), and 2.5% Matrigel (Corning Inc., Corning, NY, cat. 354248) for the first three passages. The 362531-283-R-J2-PDC and 782815-120-R-J1-PDC lines were cultured in 6C/Colon 1B media, which includes advanced DMEM/F-12 (Thermo Fisher Scientific, cat. 12634028), 10 mM HEPES (Thermo Fisher Scientific, cat. 15630080), 1X GlutaMAX supplement (Thermo Fisher Scientific, cat. 35050061), 0.1 mg/mL primocin (InvivoGen, San Diego, CA, cat. ant-pm-2), 10% defined fetal bovine serum, heat inactivated (HyClone Laboratories Inc., Logan, UT, cat. SH30070.03HI), 50% L-WRN conditioned media (ATCC, cat. CRL-3276), 1.25 mM N-Acetyl-L-cysteine (Sigma-Aldrich, cat. A9165), 10 mM nicotinamide (Sigma-Aldrich, cat. N0636), 1X B-27 supplement (Thermo Fisher Scientific, cat. 17504044), 1X N-2 supplement (Thermo Fisher Scientific, cat. 17502048), 50 ng/mL human EGF (Thermo Fisher Scientific, cat. PHG0311), and 10 microM Y-27632 dihydrochloride (Tocris Bioscience, cat. 1254). The K12877-001-R-J1-PDC line was cultured in 6I media, which includes all 6C/Colon 1B media plus 10 ng/mL human FGF-10 (PeproTech, cat. 100-26), 1 ng/mL human FGF-2 (PeproTech, cat. 100-18B), 1 µM prostaglandin E2 (Tocris Bioscience, cat. 2296), […] hydrocortisone (Sigma-Aldrich, cat. H4001), and […] bovine insulin (Sigma-Aldrich, cat. I6634). The K86415-001-R-J1-PDC line was cultured in 6D media, which includes all 6C/Colon 1B media components minus the L-WRN conditioned media. The 485176-168-R4-J1-PDC was cultured in PANC media, which includes all 6C/Colon 1B media plus 100 ng/mL human FGF-10 (PeproTech, cat. 100-26), 500 nM SB-431542 (Selleckchem, cat. S1067), and 10 nM gastrin (Tocris Bioscience, cat. 3006). […]

[1] = curve of first compound, second compound 0.0316 µM
[2] = curve of first compound, second compound 0.1 µM
[3] = curve of first compound, second compound 0.316 µM
[4] = curve of first compound, second compound 1 µM
[5] = curve of first compound, second compound 3.16 µM
[6] = curve of first compound, second compound 10 µM
[7] = second compound 0.0316 µM, first compound 0.0316 µM
[8] = second compound 0.0316 µM, first compound 0.1 µM
[9] = second compound 0.0316 µM, first compound 0.316 µM
[10] = second compound 0.0316 µM, first compound 1 µM
[11] = second compound 0.0316 µM, first compound 3.16 µM
[12] = second compound 0.0316 µM, first compound 10 µM
[13] = second compound 0.1 µM, first compound 0.0316 µM
[14] = second compound 0.1 µM, first compound 0.1 µM
[15] = second compound 0.1 µM, first compound 0.316 µM
[16] = second compound 0.1 µM, first compound 1 µM
[17] = second compound 0.1 µM, first compound 3.16 µM
[18] = second compound 0.1 µM, first compound 10 µM
[19] = second compound 0.316 µM, first compound 0.0316 µM
[20] = second compound 0.316 µM, first compound 0.1 µM
[21] = second compound 0.316 µM, first compound 0.316 µM
[22] = second compound 0.316 µM, first compound 1 µM
[23] = second compound 0.316 µM, first compound 3.16 µM
[24] = second compound 0.316 µM, first compound 10 µM
[25] = second compound 1 µM, first compound 0.0316 µM
[26] = second compound 1 µM, first compound 0.1 µM
[27] = second compound 1 µM, first compound 0.316 µM
[28] = second compound 1 µM, first compound 1 µM
[29] = second compound 1 µM, first compound 3.16 µM
[30] = second compound 1 µM, first compound 10 µM
[31] = second compound 3.16 µM, first compound 0.0316 µM
[32] = second compound 3.16 µM, first compound 0.1 µM
[33] = second compound 3.16 µM, first compound 0.316 µM
[34] = second compound 3.16 µM, first compound 1 µM
[35] = second compound 3.16 µM, first compound 3.16 µM
[36] = second compound 3.16 µM, first compound 10 µM
[37] = second compound 10 µM, first compound 0.0316 µM
[38] = second compound 10 µM, first compound 0.1 µM
[39] = second compound 10 µM, first compound 0.316 µM
[40] = second compound 10 µM, first compound 1 µM
[41] = second compound 10 µM, first compound 3.16 µM
[42] = second compound 10 µM, first compound 10 µM

Compound: Cc1nc(N2CCC3(CC2)COC(C)C3N)c(CO)nc1Sc1ccnc(N)c1Cl (stereo not given) + C#Cc1c(F)ccc2cc(O)cc(-c3ncc4c(N5CC6CCC(C5)N6)nc(OCC56CCCN5CC(F)C6)nc4c3F)c12
- pIC50 [1]: < 5.00
- pIC50 [2]: 6.11
- pIC50 [3]: 6.41
- pIC50 [4]: 6.67
- pIC50 [5]: 7.18
- pIC50 [6]: > 7.50
- viability, T/C [7]: 101%
- viability, T/C [8]: 110%
- viability, T/C [9]: 68.5%
- viability, T/C [10]: 62.7%
- viability, T/C [11]: 42.8%
- viability, T/C [12]: 48.3%
- viability, T/C [13]: 115%
- viability, T/C [14]: 110%
- viability, T/C [15]: 64.8%
- viability, T/C [16]: 48.6%
- viability, T/C [17]: 44.2%
- viability, T/C [18]: 41.5%
- viability, T/C [19]: 106%
- viability, T/C [20]: 95.2%
- viability, T/C [21]: 51.4%
- viability, T/C [22]: 45.5%
- viability, T/C [23]: 36%
- viability, T/C [24]: 39.5%
- viability, T/C [25]: 78.7%
- viability, T/C [26]: 60.7%
- viability, T/C [27]: 45.2%
- viability, T/C [28]: 35.3%
- viability, T/C [29]: 35.2%
- viability, T/C [30]: 32.6%
- viability, T/C [31]: 57.8%
- viability, T/C [32]: 45.7%
- viability, T/C [33]: 35.8%
- viability, T/C [34]: 29.6%
- viability, T/C [35]: 30.9%
- viability, T/C [36]: 26.9%
- viability, T/C [37]: 38.1%
- viability, T/C [38]: 35.2%
- viability, T/C [39]: 31.7%
- viability, T/C [40]: 26.1%
- viability, T/C [41]: 26.8%
- viability, T/C [42]: 18.2%

Compound: CCN1CCN(Cc2ccc(Nc3ncc(F)c(-c4cc(F)c5nc(C)n(C(C)C)c5c4)n3)nc2)CC1
- viability, T/C (compound 0.00316 µM): 100% and 104% (2×) and 103%
- viability, T/C (compound 0.01 µM): 92% [middle of 4 runs]
- viability, T/C (compound 0.0316 µM): 78% [middle of 4 runs]
- viability, T/C (compound 0.1 µM): 70.2% [middle of 4 runs]
- viability, T/C (compound 0.316 µM): 58% [middle of 4 runs]
- pIC50 (curve of compound): < 6.00 and 6.36 and 6.19

Compound: CC1(O)CCCC1n1c(=O)c(C(F)F)cc2cnc(NC3CCN(S(C)(=O)=O)CC3)nc21 (stereo not given) + C#Cc1c(F)ccc2cc(O)cc(-c3ncc4c(N5CC6CCC(C5)N6)nc(OCC56CCCN5CC(F)C6)nc4c3F)c12
- pIC50 [1]: 5.26
- pIC50 [2]: 5.28
- pIC50 [3]: 5.32
- pIC50 [4]: 5.41
- pIC50 [5]: > 7.50
- pIC50 [6]: > 7.50
- viability, T/C [7]: 93.3%
- viability, T/C [8]: 92.8%
- viability, T/C [9]: 75.2%
- viability, T/C [10]: 80.1%
- viability, T/C [11]: 81.7%
- viability, T/C [12]: 15.6%
- viability, T/C [13]: 90.2%
- viability, T/C [14]: 87.4%
- viability, T/C [15]: 58.7%
- viability, T/C [16]: 77.3%
- viability, T/C [17]: 76.4%
- viability, T/C [18]: 16.3%
- viability, T/C [19]: 86.5%
- viability, T/C [20]: 74.1%
- viability, T/C [21]: 58%
- viability, T/C [22]: 65%
- viability, T/C [23]: 72.2%
- viability, T/C [24]: 13.7%
- viability, T/C [25]: 62.6%
- viability, T/C [26]: 66.1%
- viability, T/C [27]: 46.6%
- viability, T/C [28]: 52.7%
- viability, T/C [29]: 66.3%
- viability, T/C [30]: 10.9%
- viability, T/C [31]: 48.3%
- viability, T/C [32]: 40.2%
- viability, T/C [33]: 34.7%
- viability, T/C [34]: 40%
- viability, T/C [35]: 42%
- viability, T/C [36]: 7.05%
- viability, T/C [37]: 32.6%
- viability, T/C [38]: 28.3%
- viability, T/C [39]: 24.9%
- viability, T/C [40]: 27.6%
- viability, T/C [41]: 29.6%
- viability, T/C [42]: 2.78%

Source: PubChem BioAssay AID2060885 (Molecular Pharmacology Branch, DTP, NCI, 2025)
